Patent US8110703B2, “Retinoid derivative and pharmaceutical composition and use thereof” (Anhui Medical University, priority 2008, dated 2012)
Where “and” joins values, the source holds several entries; their conditions need not be identical. Identical values can stand only once. Marks after values point to notes of the source that are not given here.

What was measured:
Assay type in all cases: cell-based
HepG2 cells [1] = assay: Cell cycle and apoptosis by flow cytometry, HepG2; conditions: for Apoptosis Rate (%) / G0-G1 (%) / G2-M (%) / S %: HepG2, flow cytometry
HepG2 cells [2] = assay: AFP secretory volume of HepG2 cells; conditions: for AFP: HepG2 cells
NB4 cells = assay: Cell cycle analysis by flow cytometer, NB4; design: S %: dose or concentration left out as unconfirmed; conditions: 72 h
Summary of the method: (§1)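 NB4 and K562 cells in RPMI1640 with 10% FBS were exposed to compounds […] for 72 h. Then they were fixed in 70% cold ethanol and stained with 5 ug/ml propidium iodide for cell-cycle profiling by flow cytometry.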

A549 lung cancer cells = assay: MTT cell growth and proliferation experiment, A549; design: key to Inhibition Rate: (control OD570 − test OD570)/control OD570, as fraction
Summary of the method: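 Cells in DMEM/10% calf serum were treated with retinoic acid derivatives at 1, 5 and 10 ug/ml (DMSO <0.1%) for 3 d, then with MTT for 4 h at 37° C. Read-out was OD570 after DMSO solubilisation, giving % growth inhibition versus control wells. A time-course at 10 umol/L ran for 1, 2, 3 and 7 days.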

liver cancer HepG2 cells = assay: MTT cell growth and proliferation experiment, HepG2; design: key to Inhibition Rate: (control OD570 − test OD570)/control OD570, as fraction; conditions: for Inhibition Rate: fraction
Summary of the method: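 After treatment, 20 ul/well of MTT (5 g/L) was added for 4 h at 37° C. The medium was then removed and 20 ul/well DMSO added to dissolve the crystals. Plates were shaken 10 min and read at 570 nm. Inhibition rate was (control OD570 − experimental OD570)/control OD570 × 100%, averaged over three experiments.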

HepG2 cells [3] = assay: γ-GT specific activity of HepG2 cells
A549 cells = assay: Differentiation index: CEA secretory volume of A549 cells; conditions: A549 culture supernatant, 10 ug/ml, 3 d, DMSO
Description: 1.6 Detection of Differentiation Index The cultured A549 cells are randomly divided into 6 10 μg/ml drug groups, cell control groups, solvent control groups (DMSO and ethanol) and 10 μg/ml fenretinide control groups (11 in total). The control groups and drug groups are cultured for 3 days to collect respective 3 tubes of cell culture solutions which are centrifugated at a speed of 4000 r/min for 5 min to take the supernatant and detect the CEA content of the kit by using enzyme kinetics and CEA detection.

K562 cells = assay: Cell cycle analysis by flow cytometer, K562; design: S %: dose or concentration left out as unconfirmed; conditions: 72 h
Summary of the method: as §1

[4] = A549, MTT OD 570 nm, 1 ug/ml, 3 d, solvent DMSO (D)
[5] = A549, MTT OD 570 nm, 5 ug/ml, 3 d, solvent DMSO (D)
[6] = A549, MTT OD 570 nm, 10 ug/ml, 3 d, solvent DMSO (D)
[7] = A549, MTT time gradient, 10 ug/ml, 1 d
[8] = A549, MTT time gradient, 10 ug/ml, 1 d, fraction
[9] = A549, MTT time gradient, 10 ug/ml, 2 d
[10] = A549, MTT time gradient, 10 ug/ml, 2 d, fraction
[11] = A549, MTT time gradient, 10 ug/ml, 3 d
[12] = A549, MTT time gradient, 10 ug/ml, 3 d, fraction
[13] = A549, MTT time gradient, 10 ug/ml, 7 d
[14] = A549, MTT time gradient, 10 ug/ml, 7 d, fraction
[15] = HepG2, MTT OD 570 nm, 1 ug/ml, 3 d, solvent not given
[16] = HepG2, MTT OD 570 nm, 5 ug/ml, 3 d, solvent not given
[17] = HepG2, MTT OD 570 nm, 10 ug/ml, 3 d, solvent not given
[18] = HepG2, MTT time gradient, 10 ug/ml, 1 d
[19] = HepG2, MTT time gradient, 10 ug/ml, 2 d
[20] = HepG2, MTT time gradient, 10 ug/ml, 3 d
[21] = HepG2, MTT time gradient, 10 ug/ml, 7 d
[22] = HepG2, MTT, 1 ug/ml, 3 d, solvent not given
[23] = HepG2, MTT, 5 ug/ml, 3 d, solvent not given
[24] = HepG2, MTT, 10 ug/ml, 3 d, solvent not given
[25] = HepG2, Table 5 repeat MTT, 10 ug/ml, 3 days, ethanol
[26] = HepG2, Table 5 repeat MTT, 10 ug/ml, 3 days, DMSO

## CC1=C(/C=C/C(C)=C/C=C/C(C)=C/C(=O)Oc2ccc(N)cc2C(F)(F)F)C(C)(C)CCC1 [Example 4a-02, (4-amino-2-trifluoromethylphenyl)-(all-trans)-3,7-dimethyl-9-(2,6,6-trimethyl-1-cyclohexen-1-yl)-2,4,6,8-nonatetraenoate]
HepG2 cells [1]; HepG2
  effect on the apoptosis of HepG2 cells (ranking in words): most greatly effects on the apoptosis of HepG2 cells
HepG2 cells [1]
  Apoptosis Rate (%): 38.1* %
  G0-G1 (%): 30.9%
  G2-M (%): 3.20%
  S %: 28.5%
HepG2 cells [2]; HepG2, compared with the control groups, P less than 0.05
  effects on AFP secretory volume (statistics, in words): meaningful in statistics
HepG2 cells [2]; ethanol
  AFP: 10.4* ug/L
NB4 cells
  G1 %: 52.59%
  G2 %: 7.68%
  S %: 39.73%
A549 lung cancer cells; [4]
  OD Value (x ± s): 1.644 ± 0.272 and 2.020 ± 0.317
A549 lung cancer cells; [5]
  OD Value (x ± s): 1.618 ± 0.087 and 1.979 ± 0.138
A549 lung cancer cells; [6]
  OD Value (x ± s): 1.808 ± 0.143
A549 lung cancer cells; [7]
  OD Value (x ± s): 0.815 ± 0.045
A549 lung cancer cells; [8]
  Inhibition Rate: 0.111
A549 lung cancer cells; [9]
  OD Value (x ± s): 1.176 ± 0.021
A549 lung cancer cells; [10]
  Inhibition Rate: 0.196
A549 lung cancer cells; [11]
  OD Value (x ± s): 0.720 ± 0.025
A549 lung cancer cells; [12]
  Inhibition Rate: 0.223
A549 lung cancer cells; [13]
  OD Value (x ± s): 1.144 ± 0.150
A549 lung cancer cells; [14]
  Inhibition Rate: 0.448
Liver cancer HepG2 cells; [15]
  OD Value (x ± s): 1.50 ± 0.24
Liver cancer HepG2 cells; [16]
  OD Value (x ± s): 1.32 ± 0.50
Liver cancer HepG2 cells; [17]
  OD Value (x ± s): 0.86 ± 0.13
Liver cancer HepG2 cells; [18]
  OD Value (x ± s): 1.53 ± 0.27
  Inhibition Rate: 0.11
Liver cancer HepG2 cells; [19]
  OD Value (x ± s): 1.36 ± 0.13
  Inhibition Rate: 0.20
Liver cancer HepG2 cells; [20]
  OD Value (x ± s): 0.74 ± 0.08
  Inhibition Rate: 0.46
Liver cancer HepG2 cells; [21]
  OD Value (x ± s): 0.70 ± 0.05
  Inhibition Rate: 0.48
Liver cancer HepG2 cells; [22]
  Inhibition Rate: 0.11
Liver cancer HepG2 cells; [23]
  Inhibition Rate: 0.22
Liver cancer HepG2 cells; [24]
  Inhibition Rate: 0.49
Liver cancer HepG2 cells; [25]
  OD Value (x ± s): 1.409 ± 0.090
  Inhibition Rate: 0.349*
HepG2 cells [3]; ethanol
  γ-GT: 32.6 ± 1.5 U/L
A549 cells
  CEA: 3.1 µg/L
K562 cells
  G1 %: 33.1%
  G2 %: 11.5%
  S %: 55.4%

## CC1=C(/C=C/C(C)=C/C=C/C(C)=C/C(=O)Nc2cccc(OC(F)(F)F)c2)C(C)(C)CCC1 [Example 6a-02, (3-trifluoromethoxyphenyl)-(all-trans)-3,7-dimethyl-9-(2,6,6-trimethyl-1-cyclohexen-1-yl)-2,4,6,8-nonatetraenoic acid amide]
HepG2 cells [1]
  Apoptosis Rate (%): 15.7* %
  G0-G1 (%): 57.5%
  G2-M (%): 2.61%
  S %: 25.4%
HepG2 cells [2]; DMSO
  AFP: 15.6 µg/L
NB4 cells
  G1 %: 75.47%
  G2 %: 5.52%
  S %: 19.01%
A549 lung cancer cells; [4]
  OD Value (x ± s): 1.637 ± 0.146 and 1.614 ± 0.146
A549 lung cancer cells; [5]
  OD Value (x ± s): 1.613 ± 0.120 and 1.580 ± 0.096
A549 lung cancer cells; [6]
  OD Value (x ± s): 1.362 ± 0.077 and 1.498 ± 0.218
A549 lung cancer cells; [7]
  OD Value (x ± s): 0.774 ± 0.030
A549 lung cancer cells; [8]
  Inhibition Rate: 0.156
A549 lung cancer cells; [9]
  OD Value (x ± s): 1.065 ± 0.045
A549 lung cancer cells; [10]
  Inhibition Rate: 0.272
A549 lung cancer cells; [11]
  OD Value (x ± s): 0.408 ± 0.028
A549 lung cancer cells; [12]
  Inhibition Rate: 0.561
A549 lung cancer cells; [13]
  OD Value (x ± s): 0.666 ± 0.049
A549 lung cancer cells; [14]
  Inhibition Rate: 0.679
A549 lung cancer cells; A549, MTT, 1 ug/ml, 3 d, solvent DMSO (D), given as fraction
  Inhibition Rate: 0.123 and 0.135
A549 lung cancer cells; A549, MTT, 5 ug/ml, 3 d, solvent DMSO (D), given as fraction
  Inhibition Rate: 0.136 and 0.154
A549 lung cancer cells; A549, MTT, 10 ug/ml, 3 d, solvent DMSO (D), given as fraction
  Inhibition Rate: 0.270 and 0.197
Liver cancer HepG2 cells; [15]
  OD Value (x ± s): 1.38 ± 0.62
Liver cancer HepG2 cells; [16]
  OD Value (x ± s): 1.16 ± 0.38
Liver cancer HepG2 cells; [17]
  OD Value (x ± s): 0.84 ± 0.31
Liver cancer HepG2 cells; [18]
  OD Value (x ± s): 1.60 ± 0.19
  Inhibition Rate: 0.07
Liver cancer HepG2 cells; [19]
  OD Value (x ± s): 1.14 ± 0.09
  Inhibition Rate: 0.32
Liver cancer HepG2 cells; [20]
  OD Value (x ± s): 0.81 ± 0.12
  Inhibition Rate: 0.34
Liver cancer HepG2 cells; [21]
  OD Value (x ± s): 0.49 ± 0.32
  Inhibition Rate: 0.63
Liver cancer HepG2 cells; [22]
  Inhibition Rate: 0.18
Liver cancer HepG2 cells; [23]
  Inhibition Rate: 0.31
Liver cancer HepG2 cells; [24]
  Inhibition Rate: 0.50
Liver cancer HepG2 cells; [26]
  OD Value (x ± s): 1.125 ± 0.146
  Inhibition Rate: 0.480*
HepG2 cells [3]; DMSO
  γ-GT: 42.3 ± 2.0 U/L
A549 cells
  CEA: 3.5 µg/L
K562 cells
  G1 %: 32.2%
  G2 %: 10.9%
  S %: 56.8%
